Laboratory results published in PubChem BioAssay AID1963985 (Molecular Pharmacology Branch, DTP, NCI, 2024).
pIC50: −log10 of the molar value.

System: 252836-082-R-J2-PDC tumor spheroids, viability
Assay: Anticancer human tumor 252836-082-R-J2-PDC patient-derived head and neck squamous cell carcinoma cell line growth inhibition [PI3K]
Details: spheroids with HUVEC and MSC; for pIC50: curve of first compound; for viability, T/C: stronger effect = lower value
In short: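 High-throughput combination screen: PI3K inhibitors crossed with targeted small molecules on complex spheroids of tumor cells, HUVEC and MSCs at 37 degrees C, 5% CO2. Top concentration was at or near clinical Cmax (otherwise 10 microM), with half-log decrements.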

[1] = second compound 0.0316 µM, first compound 0.0316 µM
[2] = second compound 0.0316 µM, first compound 0.1 µM
[3] = second compound 0.0316 µM, first compound 0.316 µM
[4] = second compound 0.0316 µM, first compound 1 µM
[5] = second compound 0.0316 µM, first compound 3.16 µM
[6] = second compound 0.0316 µM, first compound 10 µM
[7] = second compound 0.1 µM, first compound 0.0316 µM
[8] = second compound 0.1 µM, first compound 0.1 µM
[9] = second compound 0.1 µM, first compound 0.316 µM
[10] = second compound 0.1 µM, first compound 1 µM
[11] = second compound 0.1 µM, first compound 3.16 µM
[12] = second compound 0.1 µM, first compound 10 µM
[13] = second compound 0.316 µM, first compound 0.0316 µM
[14] = second compound 0.316 µM, first compound 0.1 µM
[15] = second compound 0.316 µM, first compound 0.316 µM
[16] = second compound 0.316 µM, first compound 1 µM
[17] = second compound 0.316 µM, first compound 3.16 µM
[18] = second compound 0.316 µM, first compound 10 µM
[19] = second compound 1 µM, first compound 0.0316 µM
[20] = second compound 1 µM, first compound 0.1 µM
[21] = second compound 1 µM, first compound 0.316 µM
[22] = second compound 1 µM, first compound 1 µM
[23] = second compound 1 µM, first compound 3.16 µM
[24] = second compound 1 µM, first compound 10 µM
[25] = second compound 3.16 µM, first compound 0.0316 µM
[26] = second compound 3.16 µM, first compound 0.1 µM
[27] = second compound 3.16 µM, first compound 0.316 µM
[28] = second compound 3.16 µM, first compound 1 µM
[29] = second compound 3.16 µM, first compound 3.16 µM
[30] = second compound 3.16 µM, first compound 10 µM
[31] = second compound 10 µM, first compound 0.0316 µM
[32] = second compound 10 µM, first compound 0.1 µM
[33] = second compound 10 µM, first compound 0.316 µM
[34] = second compound 10 µM, first compound 1 µM
[35] = second compound 10 µM, first compound 3.16 µM
[36] = second compound 10 µM, first compound 10 µM
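Further: spheroids exposed to agents for seven days before readout.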
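Wherever viability, T/C is given: percent of vehicle DMSO control viability so 100% = untreated growth.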

C#Cc1c(F)ccc2cc(O)cc(-c3ncc4c(N5CC6CCC(C5)N6)nc(OCC56CCCN5CC(F)C6)nc4c3F)c12 (stereo unspecified) + CC(Nc1ncnc2nc[nH]c12)c1cc2cccc(Cl)c2c(=O)n1-c1ccccc1
pIC50 (second compound 0.0316 µM): < 5.00
pIC50 (second compound 0.1 µM): < 5.00
pIC50 (second compound 0.316 µM): < 5.00
pIC50 (second compound 1 µM): < 5.00
pIC50 (second compound 3.16 µM): < 5.00
pIC50 (second compound 10 µM): 5.47
viability, T/C [1]: 90%
viability, T/C [2]: 78.4%
viability, T/C [3]: 82.8%
viability, T/C [4]: 86.4%
viability, T/C [5]: 82%
viability, T/C [6]: 63.6%
viability, T/C [7]: 90.8%
viability, T/C [8]: 87%
viability, T/C [9]: 90.8%
viability, T/C [10]: 97.7%
viability, T/C [11]: 82.6%
viability, T/C [12]: 64.8%
viability, T/C [13]: 96.1%
viability, T/C [14]: 92.9%
viability, T/C [15]: 90.1%
viability, T/C [16]: 87.5%
viability, T/C [17]: 73.5%
viability, T/C [18]: 65.4%
viability, T/C [19]: 83.3%
viability, T/C [20]: 75.7%
viability, T/C [21]: 88.6%
viability, T/C [22]: 78.4%
viability, T/C [23]: 88.4%
viability, T/C [24]: 66.8%
viability, T/C [25]: 84.7%
viability, T/C [26]: 67.6%
viability, T/C [27]: 73.7%
viability, T/C [28]: 75%
viability, T/C [29]: 69%
viability, T/C [30]: 62.6%
viability, T/C [31]: 54.5%
viability, T/C [32]: 58.2%
viability, T/C [33]: 53.9%
viability, T/C [34]: 49.4%
viability, T/C [35]: 55.6%
viability, T/C [36]: 44.9%

C=CC(=O)N1CCN(c2nc(=O)n(-c3c(C)ccnc3C(C)C)c3nc(-c4c(O)cccc4F)c(F)cc23)C(C)C1 (stereo unspecified) + CC(Nc1ncnc2nc[nH]c12)c1cc2cccc(Cl)c2c(=O)n1-c1ccccc1
pIC50 (second compound 0.0316 µM): < 5.00
pIC50 (second compound 0.1 µM): < 5.00
pIC50 (second compound 0.316 µM): < 5.00
pIC50 (second compound 1 µM): < 5.00
pIC50 (second compound 3.16 µM): < 5.00
pIC50 (second compound 10 µM): < 5.00
viability, T/C [1]: 94.3%
viability, T/C [2]: 95.8%
viability, T/C [3]: 103%
viability, T/C [4]: 103%
viability, T/C [5]: 105%
viability, T/C [6]: 98%
viability, T/C [7]: 88.5%
viability, T/C [8]: 92.5%
viability, T/C [9]: 96.1%
viability, T/C [10]: 89.8%
viability, T/C [11]: 96.3%
viability, T/C [12]: 100%
viability, T/C [13]: 91%
viability, T/C [14]: 96.6%
viability, T/C [15]: 107%
viability, T/C [16]: 99.7%
viability, T/C [17]: 104%
viability, T/C [18]: 90.5%
viability, T/C [19]: 85.7%
viability, T/C [20]: 90.4%
viability, T/C [21]: 118%
viability, T/C [22]: 102%
viability, T/C [23]: 108%
viability, T/C [24]: 123%
viability, T/C [25]: 74.9%
viability, T/C [26]: 70.3%
viability, T/C [27]: 74.7%
viability, T/C [28]: 86.2%
viability, T/C [29]: 93.3%
viability, T/C [30]: 82.7%
viability, T/C [31]: 72.5%
viability, T/C [32]: 57.5%
viability, T/C [33]: 69.4%
viability, T/C [34]: 72.8%
viability, T/C [35]: 94.9%
viability, T/C [36]: 74.9%

CC(Cn1ccc(-c2ccc(C#N)c(Cl)c2)n1)NC(=O)c1cc(C(C)O)[nH]n1 (stereo unspecified) + CC(Nc1ncnc2nc[nH]c12)c1cc2cccc(Cl)c2c(=O)n1-c1ccccc1
pIC50 (second compound 0.0316 µM): < 5.00
pIC50 (second compound 0.1 µM): < 5.00
pIC50 (second compound 0.316 µM): < 5.00
pIC50 (second compound 1 µM): < 5.00
pIC50 (second compound 3.16 µM): < 5.00
pIC50 (second compound 10 µM): < 5.00
viability, T/C [1]: 105%
viability, T/C [2]: 78.9%
viability, T/C [3]: 96.6%
viability, T/C [4]: 87%
viability, T/C [5]: 81.7%
viability, T/C [6]: 76.3%
viability, T/C [7]: 86.8%
viability, T/C [8]: 89.3%
viability, T/C [9]: 82.6%
viability, T/C [10]: 83%
viability, T/C [11]: 94.5%
viability, T/C [12]: 70.2%
viability, T/C [13]: 83.2%
viability, T/C [14]: 78.5%
viability, T/C [15]: 88.9%
viability, T/C [16]: 88.8%
viability, T/C [17]: 85.5%
viability, T/C [18]: 85.9%
viability, T/C [19]: 92.2%
viability, T/C [20]: 76.3%
viability, T/C [21]: 89.6%
viability, T/C [22]: 80.5%
viability, T/C [23]: 77%
viability, T/C [24]: 70.3%
viability, T/C [25]: 74%
viability, T/C [26]: 73.7%
viability, T/C [27]: 79.2%
viability, T/C [28]: 72.5%
viability, T/C [29]: 75%
viability, T/C [30]: 74.2%
viability, T/C [31]: 60.9%
viability, T/C [32]: 55.3%
viability, T/C [33]: 73.4%
viability, T/C [34]: 55.4%
viability, T/C [35]: 65.4%
viability, T/C [36]: 56.8%
